Values joined by “and” are separate entries in the source; they are usually repeats but may differ in a detail not shown here. Identical values can stand only once.
Tested on: GL3 luciferase gene
Experiment: Evaluation of each siRNA using Dual-Luc reporter system (expression-suppressive activity)
Type: cell-based, Human
Conditions: for suppressive activity against luciferase expression compared with control RNA: Dual-Luc reporter system, HCT116 cells, comparison drawn from Table 1; for IC50: HCT116 cells transfected with vector OFF#085 or OFF#086, siRNA reverse transfection with Lipofectamine RNAiMAX, two-night culture, luciferase activity (Renilla/firefly), Dual-Glo, read-out: 50% inhibition concentration
Description: Each siRNA was evaluated using a Dual-Luc reporter system as described below.
A restriction enzyme sequence was added to a sequence containing a 19-base sequence complementary to the antisense strand of siRNA against the GL3 luciferase gene (Elbashir S M et al., Nature, Vol. 411, 24 May 2001, 494-498), and its 5′-flanking 10 bases and 3′-flanking 10 bases. The resulting sequence was incorporated into the XhoI/NotI site of a psiCHECK2 plasmld (Promega KK) either in a forward direction (sequence A) or in a reverse direction (sequence B) to construct vectors for the expression of firefly Iuciferase and Renilla luciferase, OFF#085 and OFF#086, respectively.
Human colon cancer cell line HCT116 cells (ATCC) were inoculated at a density of 3×10^6 cells/10 ml/75 cm^2 flask. After overnight culture at 37° C. in 5% CO2, the cells were transfected with the vector OFF#085 or OFF#086 obtained in the preceding paragraph 1) using FuGENE 6 (F. Hoffmann-La Roche Ltd.) and further cultured overnight. Each siRNA synthesized in Example 5 and Comparative Example was diluted with PBS into two serial dilutions of 3.3 nM (final) and 0.0043 nM or 12 serial dilutions from 10 nM to 56 fM and used in reverse transfection of 1.6×10^4 cells/100 μL/well using Lipofectamine RNAiMAX reagent (Invitrogen Corp.). After two-night culture, firefly luciferase activity and Renilla luciferase activity were measured using Dual-Glo Luc Assay kit (Promega KK) according to the attached document. When the luciferase activity (Renilla/firefly) of cells reverse-transfected with 10 nM BLOCK-iT™ Alexa Fluor® Red Fluorescent Oligo (Invitrogen Corp.) was defined as 100%, the luciferase activity of the cells transfected with each siRNA was calculated. The IC50 value was calculated using GraphPad Prism 5.

Row | Substance | suppressive activity against luciferase expression compared with control RNA | IC50
1 | siRNA (1): siRNA of sense strand SEQ ID NO: 1 and antisense strand SEQ ID NO: 2 containing one formula (II) partial structure U(K) induced from compound 11 (sense CUUACGCUGAGUACUUCGATT; antisense UCGAAGUACUCAGCGUAAGTT; chemistry not fully specified) | higher suppressive activity | 0.007 nM
2 | Control RNA: Control siRNA of sense strand SEQ ID NO: 4 and antisense strand SEQ ID NO: 5, free from compound 11 or 22 (sense CUUACGCUGAGUACUUCGATT; antisense UCGAAGUACUCAGCGUAAGTT; chemistry not fully specified) [reference compound] |  | 0.024 nM and 0.012 nM
3 | siRNA (2): siRNA of sense strand SEQ ID NO: 1 and antisense strand SEQ ID NO: 3 containing one formula (II) partial structure U(K2) induced from compound 22 (sense CUUACGCUGAGUACUUCGATT; antisense UCGAAGUACUCAGCGUAAGTT; chemistry not fully specified) | higher suppressive activity | 0.009 nM

Source: US9725474B2, “Modified nucleic acid” (TAKEDA PHARMACEUTICAL COMPANY LIMITED, priority 2012, dated 2017)
